Read-outs that look alike come from different tables or passages of the source.
How the values were obtained:
[1] = test system: tonic seizures induced by 26 mA corneal stimulation; conditions: Compound A i.v. 60 minutes before electroshock, female NMRI mice
Source text: After administration of vehicle or test substance female NMRI mice were stimulated with 26 mA for 0.3 seconds, using corneal stimulation (Rodent Shocker, Hugo Sachs Electronic, Germany). In presence of tonic seizure the mice was labeled 0% protection and if no tonic seizure was detected the mice was labeled 100% protection. Results were plotted as a function of logarithmic dose and fitted to a sigmoid-dose response (with variable slope (GraphPad Prism, ver. 4) and used to estimate the dose that would give a 50% protection from seizures (N=6/group).
Vehicle (5% chremophor) was dosed p.o.

[2] = 10 mg/kg i.v. with Verapamil I.C.V. versus Compound A only; mice; 5-60 minutes
Protocol: 16 NMRI-mice were allocated into 4 groups. The animals were anesthetised in 1.5% Isuflurane and 20% O2. […] At different time point (5 minutes, 15 minutes, 30 minutes and 60 minutes) after dosing the animals were killed by decapitation and blood and brain were collected. The EDTA stabilised blood was centrifugation at 4000 rpm for 20 minutes at 4° C. Plasma and brain samples were stored at −20° C. pending analysis.
Plasma and brain samples were analysed using LC-MS/MS (Quattro Ultimo Platinum with Acquility solvent and sample manager, Waters) in positive electrospray 10 ionisation and multiple reaction monitoring mode. The analytical column was a UPLC Acquility BEH C18 (1.7 μm) 1.0×50 mm (Waters) with gradient elution at a 0.13 ml/min flow rate. The initial mobile phase was 20% methanol/80% formic acid changed to 90% methanol/10% formic acid over a time period of 1.7 min.
Samples were centrifuged for 25 minutes at 5° C., 14000 rpm and 3 μl of the supernatants were injected onto the LC-column.
Brain tissue (0.1 g) was weighed out on top of a tube containing 0.8 ml bead (1.0 mm Zirconia from BioSpec Products). […]
Samples were quantified based on standard curves (linear, 1/×weighting), prepared in plasma and brain tissue respectively.

P-gp = conditions: inhibition of P-gp in phenytoin-treated chronic epileptic rats; cited from earlier work

Structure (SMILES) | ED50, protection against tonic seizures ([1]; pretreatment with Tariquidar 24 mg/kg p.o. 120 minutes before) | ED50, protection against tonic seizures ([1]; with vehicle (5% chremophor p.o.)) | brain exposure of Compound A [2] | seizure control (P-gp)
CN1CCc2c(-c3ccc(S(=O)(=O)N(C)C)cc3)cc3c(c2C1)NC(=O)C3=NOC(CCO)C(=O)O (stereo not shown) [Compound A, 8-Methyl-5-(4-(N,N-dimethyl-sulfamoyl)phenyl)-6,7,8,9-tetrahydro-1H-pyrrolo[3,2h]-isoqinoline-2,3-dione-3-O-(4-hydroxybutyric acid-2-yl)oxime] | 24 mg/kg | 31.5 mg/kg | increase in brain exposure | 
COc1cc2c(cc1OC)CN(CCc1ccc(NC(=O)c3cc(OC)c(OC)cc3NC(=O)c3cnc4ccccc4c3)cc1)CC2 [Tariquidar] |  |  |  | improves seizure control

From patent publication US20100041691A1, “PHARMACEUTICAL COMPOSITIONS COMPRISING COMBINATIONS OF AN AMPA/KAINATE ANTAGONISTIC COMPOUND AND AN INHIBITOR OF A MULTIDRUG RESISTANCE PROTEIN” (NeuroSearch A/S, priority 2006, published 2010)
